US20240252454A1, “COMPOSITION COMPRISING AN INHIBITOR OF MITOCHONDRIAL TRANSCRIPTION” (LEAD DISCOVERY CENTER GMBH, priority 2021, published 2024)

Legend:
MV4-11 [1] = assay: CellTiter-GLO (CTG) assay, combinatorial matrix; format: cell-based; conditions: MV4-11, CTG matrix of the IMT with Bcl-2 inhibitor (Venetoclax, Table 10), wide concentration range
Experimental: To determine the in vitro cellular viability, cellular ATP concentrations were measured using a luminescence-based homogenous assay format, as described here. […] Optimal cell density for each cell line was determined to guarantee linearity. For viability assays with compounds, cells were then seeded at a density of 200 to 1000 per well in 25 μl in 384-well plates (Greiner Bio-One, Frickenhausen, Germany). After overnight incubation at 37° C./5% CO2, 25 nl or 75 nl compounds were added to each sample well by using BIOMEK FXP Laboratory Automation Workstation (Beckman Coulter, USA). Wells with cells and 0.1% or 0.3% DMSO in culture medium were used as positive controls, wells with cells and 10 μM staurosporine (Selleck Chemicals, Huston, USA) in culture medium were used as negative controls. […] Luminescence was measured by Envision Plate Reader (Perkin Elmer, USA). […]
The general suitability of IMT substances for a combination with standard inhibitors of the Bcl-2 signalling pathway was first determined in in vitro cell culture experiments in a matrix format (Table 10). The changes in the cellular ATP content, as an indicator of the metabolic activity of the cells, were measured using the CellTiter-GLO Assay (CTG), as described in Example 1).

MOLM-13 = assay: apoptosis induction, flow cytometry; format: cell-based
Experimental: (§1) This analysis was carried out using flow cytometry and the established cellular markers for necrosis, apoptosis and living cells.
(§2) These experiments were followed by a broader analysis of the apoptosis induction by the inhibitor combination used in the four AML cell lines MV4-11, MOLM-13, OCI-AML3 and OCI-AML2 (FIG. 3). This analysis was carried out using flow cytometry and the established cellular markers for necrosis, apoptosis and living cells.

MV4-11 [2] = assay: apoptosis induction, flow cytometry; format: cell-based
Experimental: as §1, §2

OCI-AML2 = assay: apoptosis induction, flow cytometry; format: cell-based; conditions: IMT alone, flow cytometry (FIG. 3)
Experimental: as §1, §2

OCI-AML3 = assay: apoptosis induction, flow cytometry; format: cell-based; conditions: IMT alone, flow cytometry (FIG. 3)
Experimental: as §1, §2

[3] = PK and toxicological studies, plasma and liver concentrations; format: in vivo; conditions: oral combination of the IMT and Venetoclax in 0.5% methyl cellulose in water, NBSGW mice, 4 hours, plasma and liver (FIG. 4)
Experimental: Combinations s of 2-[(3R)-1-[(2R)-2-[4-(2-chloro-4-fluoro-phenyl)-2-oxo-chromen-7-yl]oxypropanoyl]-3-piperidyl]acetic acid and Venetoclax were administered orally in a formulation of 0.5% methyl cellulose in water, before the respective substance concentrations (y-axis) of Venetoclax (left) or 2-[(3R)-1-[(2R)-2-[4-(2-chloro-4-fluoro-phenyl)-2-oxo-chromen-7-yl]oxypropanoyl]-3-piperidyl]acetic acid (right) after 4 hours and extraction from blood plasma or liver tissue were analysed by LC-MS. Error bars indicate the standard deviation around the mean of the multiple measurements.
For this, a vehicle formulation suitable for the oral administration of the combination of Venetoclax and 2-[(3R)-1-[(2R)-2-[4-(2-chloro-4-fluoro-phenyl)-2-oxo-chromen-7-yl]oxypropanoyl]-3-piperidyl]acetic acid was prepared to examine its pharmacokinetic suitability. Since the formulations based on ethanol, PEG-400 and Phosal that have been published for Venetoclax have not proven to be suitable for generating an administrable solution or suspension of IMT and Venetoclax, a simplified formulation of 0.5% methyl cellulose in water was prepared, which was tested initially in PK and toxicological studies in NBSGW mice (FIG. 4). […] On the other hand, doses that could be safely used were established in this mouse model, with which the subsequent studies could be carried out.

[4] = tested on: Venetoclax-resistant PDX AML cells; assay: in vivo PDX study in a Venetoclax-resistant model; conditions: NSGS mice
Description: A=overview of the study implementation (corresponding to FIG. 5A) in NSGS mice injected with spleenocytes (n=12). B=flow cytometric analysis and % of live hCD45+AML cells in peripheral blood, spleen and bone marrow of the treated groups; C=immunohistological analysis of bone marrow and spleen tissue sections stained with hcd45 (brown); Quantitative analysis of the hCD45+ cells from C with three technical replicates (n=2). E=blood analysis of the survival group; F=Kaplan-Meier survival analysis (n=6 per group). […] The procedure was similar to that previously described for the CDX model, except for the addition of an endpoint control cohort in each treatment group.

[5] = IMT alone, flow cytometry (FIG. 3)
[6] = IMT combined with Venetoclax, compared to Venetoclax alone

C[C@@H](Oc1ccc2c(-c3ccc(F)cc3Cl)cc(=O)oc2c1)C(=O)N1CCC[C@H](CC(=O)O)C1 [2-[(3R)-1-[(2R)-2-[4-(2-chloro-4-fluoro-phenyl)-2-oxo-chromen-7-yl]oxypropanoyl]-3-piperidyl]acetic acid]
combinatorial effect (cellular ATP content) (MV4-11 [1]): additive or even synergistic effect
induction of apoptosis (MOLM-13; [5]): cannot trigger apoptosis
induction of apoptosis (MOLM-13; [6]): increases the induction of apoptosis significantly
induction of apoptosis (MV4-11 [2]; [5]): cannot trigger apoptosis
induction of apoptosis (MV4-11 [2]; [6]): increases the induction of apoptosis significantly
induction of apoptosis (OCI-AML2): cannot trigger apoptosis
induction of apoptosis (OCI-AML3): cannot trigger apoptosis
PK parameters, in particular the plasma and tissue concentrations [3]: do not significantly influence one another
tumour load and circulating hCD45-positive AML cells ([4]; IMT combined with Venetoclax vs individual inhibitors or control, peripheral blood, bone marrow, spleen (FIG. 6)): significantly lower
overall survival (survival analysis) ([4]; IMT/Bcl-2i combination, treatment lasting 21 days): long-lasting, synergistic effect
